Laboratory results taken from patent US20200024278A1, “COMPOSITION COMPRISING ANTIBIOTIC COMPOUND AND AN HETEROCYCLIC COMPOUND AND THEIR USE IN PREVENTING OR TREATING BACTERIAL INFECTIONS” (MUTABILIS, priority 2016, published 2020).

Legend:
Assay in all cases: MIC, broth microdilution (CLSI), substance alone or ATB combined with compound at 4 or 8 μg/mL
SAU 29213 = assay type: cell-based, S. aureus; conditions: for MIC ATB combined with compound: compound @4 μg/ml, SAU 29213
Procedure, shortened: (§1)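 Broth microdilution; ca-MHB; 5·10^5 CFU/mL; 35° C, 16-20 h; compound alone or fixed 4/8 μg/mL with antibiotic series; endpoint = no visible growth.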

PAE UFR90 = assay type: cell-based, P. aeruginosa; conditions: PAE UFR90; for MIC ATB combined with compound: compound @4 μg/ml
Procedure, shortened: as §1

PAE UFR48 = assay type: cell-based, P. aeruginosa; conditions: PAE UFR48; for MIC ATB combined with compound: compound @4 μg/ml
Procedure, shortened: as §1

PAE 105250 = assay type: cell-based, P. aeruginosa; conditions: PAE 105250; for MIC ATB combined with compound: compound @4 μg/ml
Procedure, shortened: as §1

ECO 190317 = assay type: cell-based, E. coli; conditions: ECO 190317; for MIC ATB combined with compound: compound @4 μg/ml
Procedure, shortened: as §1

ECO UFR39 = assay type: cell-based, E. coli; conditions: ECO UFR39; for MIC ATB combined with compound: compound @4 μg/ml
Procedure, shortened: as §1

SPN 49619 = assay type: cell-based, S. pneumoniae; conditions: SPN 49619; for MIC ATB combined with compound: compound @4 μg/ml
Procedure, shortened: as §1

ECL P99 = assay type: cell-based, E. cloacae; conditions: ECL P99; for MIC ATB combined with compound: compound @4 μg/ml
Procedure, shortened: as §1

KPN UFR42 = assay type: cell-based, K. pneumoniae; conditions: KPN UFR42; for MIC ATB combined with compound: compound @4 μg/ml
Procedure, shortened: as §1

KPN 6299 = assay type: cell-based, K. pneumoniae; conditions: compound @4 μg/ml
Procedure, shortened: as §1

KPN BAA-1898 = assay type: cell-based, K. pneumoniae; conditions: KPN BAA-1898; for MIC ATB combined with compound: compound @4 μg/ml
Procedure, shortened: as §1

NC[C@@H]1CC(=NOCC(N)=O)[C@@H]2CN1C(=O)N2OS(=O)(=O)[O-].O=C(O)C(F)(F)F.[Na+] [Example 4, 2,2,2-trifluroacetate and sodium [(2S,5S)-4-(2-amino-2-oxo-ethoxy)imino-2-(azaniumylmethyl)-7-oxo-1,6-diazabicyclo[3.2.1]octan-6-yl] sulfate]
2 µg/mL: MIC ATB combined with compound (SAU 29213; ATB FOS) | MIC (PAE UFR90; substance alone)
<0.125 µg/mL: MIC ATB combined with compound (PAE UFR90; ATB FOS) | MIC ATB combined with compound (PAE UFR48; ATB FOS) | MIC ATB combined with compound (ECO 190317; ATB FOS) | MIC ATB combined with compound (ECO UFR39; ATB FOS) | MIC ATB combined with compound (ECL P99; ATB FOS)
0.25 µg/mL: MIC (ECO 190317; substance alone) | MIC (ECO UFR39; substance alone) | MIC ATB combined with compound (KPN 6299; ATB MEM)
1 µg/mL: MIC ATB combined with compound (KPN UFR42; ATB ATM)
4 µg/mL: MIC ATB combined with compound (SAU 29213; ATB FEP) | MIC ATB combined with compound (SAU 29213; ATB PIP) | MIC (PAE UFR48; substance alone) | MIC ATB combined with compound (KPN 6299; ATB PIP)
<0.031 µg/mL: MIC ATB combined with compound (PAE UFR90; ATB ATM) | MIC ATB combined with compound (PAE UFR90; ATB FEP) | MIC ATB combined with compound (PAE UFR90; ATB MEM) | MIC ATB combined with compound (PAE UFR90; ATB PIP) | MIC ATB combined with compound (PAE UFR48; ATB ATM) | MIC ATB combined with compound (PAE UFR48; ATB FEP) | MIC ATB combined with compound (PAE UFR48; ATB MEM) | MIC ATB combined with compound (PAE UFR48; ATB PIP) | MIC ATB combined with compound (PAE 105250; ATB ATM) | MIC ATB combined with compound (PAE 105250; ATB MEM) | MIC ATB combined with compound (ECO 190317; ATB ATM) | MIC ATB combined with compound (ECO 190317; ATB FEP) | MIC ATB combined with compound (ECO 190317; ATB MEM) | MIC ATB combined with compound (ECO 190317; ATB PIP) | MIC ATB combined with compound (ECO UFR39; ATB ATM) | MIC ATB combined with compound (ECO UFR39; ATB FEP) | MIC ATB combined with compound (ECO UFR39; ATB MEM) | MIC ATB combined with compound (ECL P99; ATB ATM) | MIC ATB combined with compound (ECL P99; ATB FEP) | MIC ATB combined with compound (ECL P99; ATB MEM)
64 µg/mL: MIC ATB combined with compound (KPN 6299; ATB FOS)
0.063 µg/mL: MIC ATB combined with compound (ECO UFR39; ATB PIP) | MIC ATB combined with compound (SPN 49619; ATB FEP) | MIC ATB combined with compound (SPN 49619; ATB MEM) | MIC (ECL P99; substance alone) | MIC ATB combined with compound (KPN 6299; ATB ATM)
32 µg/mL: MIC (PAE 105250; substance alone) | MIC ATB combined with compound (SPN 49619; ATB FOS) | MIC (SPN 49619; substance alone) | MIC ATB combined with compound (KPN UFR42; ATB FOS) | MIC ATB combined with compound (KPN BAA-1898; ATB FOS)
0.5 µg/mL: MIC ATB combined with compound (SPN 49619; ATB PIP) | MIC ATB combined with compound (KPN BAA-1898; ATB FEP) | MIC ATB combined with compound (KPN BAA-1898; ATB MEM)
0.125 µg/mL: MIC ATB combined with compound (SAU 29213; ATB MEM) | MIC ATB combined with compound (KPN 6299; ATB FEP)
<=0.031 μg/mL: MIC ATB combined with compound (PAE 105250; ATB FEP) | MIC ATB combined with compound (PAE 105250; ATB PIP) | MIC ATB combined with compound (ECL P99; ATB PIP)
>32 µg/mL: MIC ATB combined with compound (SAU 29213; ATB ATM) | MIC (SAU 29213; substance alone, SAU 29213 (MSSA 29213)) | MIC ATB combined with compound (SPN 49619; ATB ATM) | MIC ATB combined with compound (KPN UFR42; ATB FEP) | MIC ATB combined with compound (KPN UFR42; ATB MEM) | MIC ATB combined with compound (KPN UFR42; ATB PIP) | MIC (KPN UFR42; substance alone) | MIC ATB combined with compound (KPN BAA-1898; ATB PIP) | MIC (KPN BAA-1898; substance alone)
8 µg/mL: MIC ATB combined with compound (PAE 105250; ATB FOS) | MIC ATB combined with compound (KPN BAA-1898; ATB ATM)
